Measured values taken from patent US8071768B2, “Alkylquinoline and alkylquinazoline kinase modulators” (Janssen Pharmaceutica, N.V., priority 2005, dated 2011).
Structures can show the parent of a compound that is named as a salt.

Columns and labels:
[1] = biological target: T1, TrkB (Homo sapiens, UniProt Q16620); test: Trk B Fluorescence Polarization Kinase Assay; format: biochemical; details: uncertainty ±10%
T1 construct: purchased Upstate 14-507M
Method in brief: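 The TrkB kinase reaction (50 nM enzyme, 20 ug/mL poly Glu4Tyr, 150 uM ATP, 5 mM MgCl2, 1% DMSO) ran 30 minutes at room temperature and was stopped with EDTA. Phosphorylation was detected by fluorescence-polarization displacement of a fluorescein phosphopeptide from an anti-phosphotyrosine antibody. IC50 came from a variable-slope sigmoidal fit of triplicates.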

[2] = biological target: T2, isolated kinase domain of the human c-kit receptor (Homo sapiens, UniProt P10721); test: c-Kit Fluorescence Polarization Kinase Assay; format: biochemical; details: uncertainty ±10%; read-out: ckit IC50
T2 construct: isolated kinase domain of the human c-kit receptor; purchased ProQinase lot SP005
T2 sequence (P10721 589-937 limits assumed): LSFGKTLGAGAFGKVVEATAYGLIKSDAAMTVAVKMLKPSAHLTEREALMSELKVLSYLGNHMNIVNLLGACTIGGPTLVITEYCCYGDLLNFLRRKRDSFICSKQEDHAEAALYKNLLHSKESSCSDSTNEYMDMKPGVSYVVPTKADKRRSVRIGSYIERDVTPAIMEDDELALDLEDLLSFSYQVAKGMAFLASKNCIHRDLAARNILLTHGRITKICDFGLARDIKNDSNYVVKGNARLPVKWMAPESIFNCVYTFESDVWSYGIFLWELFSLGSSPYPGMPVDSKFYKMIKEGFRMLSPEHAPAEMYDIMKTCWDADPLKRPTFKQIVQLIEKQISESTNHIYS
Protocol: c-Kit Fluorescence Polarization Kinase Assay
The compounds of the present invention are also specific inhibitors of c-Kit. Selection of preferred compounds of Formula I for use as c-Kit inhibitors was performed in the following manner using an in vitro kinase assay to measure inhibition of the isolated kinase domain of the human c-kit receptor in a fluorescence polarization (FP) protocol. The c-kit assay utilized the fluorescein-labeled phosphopeptide and the anti-phosphotyrosine antibody included in the Panvera Phospho-Tyrosine Kinase Kit (Green) supplied by Invitrogen. When c-kit phosphorylated the poly Glu4Tyr, the fluorescein-labeled phosphopeptide was displaced from the anti-phosphotyrosine antibody by the phosphorylated poly Glu4Tyr, thus decreasing the FP value. The c-kit kinase reaction was incubated at room temperature for 45 minutes under the following conditions: 1 nM c-kit (ProQinase, lot SP005), 100 ug/mL poly Glu4Tyr, 50 uM ATP, 5 mM MgCl2, 1 mM DTT, 0.01% Tween-20, 1% DMSO or compound in […], pH 7.5. The kinase reaction was stopped with the addition of EDTA. The fluorescein-labeled phosphopeptide and the anti-phosphotyrosine antibody were added and incubated for 30 minutes at room temperature and fluorescence polarization was read. Data points were an average of triplicate samples. Inhibition and IC50 data analysis were done with GraphPad Prism using a non-linear regression fit with a multiparamater, sigmoidal dose-response (variable slope) equation.

T1 sequence (Q16620 32-822): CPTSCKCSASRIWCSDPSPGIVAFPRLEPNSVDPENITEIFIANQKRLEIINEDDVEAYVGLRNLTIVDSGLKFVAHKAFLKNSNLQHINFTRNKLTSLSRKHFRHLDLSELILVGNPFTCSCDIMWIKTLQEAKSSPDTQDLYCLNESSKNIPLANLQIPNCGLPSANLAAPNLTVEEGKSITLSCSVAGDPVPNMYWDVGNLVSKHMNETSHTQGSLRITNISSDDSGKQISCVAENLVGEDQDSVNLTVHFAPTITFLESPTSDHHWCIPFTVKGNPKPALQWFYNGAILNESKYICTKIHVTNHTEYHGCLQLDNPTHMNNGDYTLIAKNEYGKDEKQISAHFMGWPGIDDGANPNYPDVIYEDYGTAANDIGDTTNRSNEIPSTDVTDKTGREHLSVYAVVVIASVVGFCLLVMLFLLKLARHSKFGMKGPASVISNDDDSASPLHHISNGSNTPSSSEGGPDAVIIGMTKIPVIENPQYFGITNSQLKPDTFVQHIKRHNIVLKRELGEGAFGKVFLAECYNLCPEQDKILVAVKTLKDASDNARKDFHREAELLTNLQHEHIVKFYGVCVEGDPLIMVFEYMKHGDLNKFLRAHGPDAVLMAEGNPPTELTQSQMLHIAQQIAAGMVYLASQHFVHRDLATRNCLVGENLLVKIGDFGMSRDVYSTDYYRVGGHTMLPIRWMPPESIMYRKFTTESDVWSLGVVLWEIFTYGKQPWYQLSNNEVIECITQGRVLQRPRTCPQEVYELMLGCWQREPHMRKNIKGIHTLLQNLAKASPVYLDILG

IC50 [1] [nM] | IC50 [2] [nM] | Structure (SMILES)
220 | 82.5 | COc1cc2ncnc(C3CCN(C(=O)Nc4ccc(OC(C)C)cc4)CC3)c2cc1OC [Compound 1, 4-(6,7-Dimethoxy-quinazolin-4-yl)-piperidine-1-carboxylic acid (4-isopropoxy-phenyl)-amide hydrochloride]
– | 610 | COc1cc2ncnc(C3CCN(C(=O)Nc4ccc(C(C)C)cc4)CC3)c2cc1OC [Compound 4, 4-(6,7-Dimethoxy-quinazolin-4-yl)-piperidine-1-carboxylic acid (4-isopropyl-phenyl)-amide]
19200 | 158 | COc1cc2ncnc(C3CCN(C(=O)Nc4ccc(N5CCOCC5)cc4)CC3)c2cc1OC [Compound 18, 4-(6,7-Dimethoxy-quinazolin-4-yl)-piperidine-1-carboxylic acid (4-morpholin-4-yl-phenyl)-amide]
> 20000 | 28 | O=C1CCCN1CCCOc1ccc2c(C3CCN(C(=O)Nc4ccc(N5CCOCC5)cc4)CC3)ncnc2c1 [Compound 68, 4-{7-[3-(2-Oxo-pyrrolidin-1-yl)-propoxy]-quinazolin-4-yl}-piperidine-1-carboxylic acid (4-morpholin-4-yl-phenyl)-amide]
2000 | 23 | O=C1CCCN1CCCOc1ccc2c(C3CCN(C(=O)Nc4ccc(N5CCOCC5)nc4)CC3)ncnc2c1 [Compound 72, 4-{7-[3-(2-Oxo-pyrrolidin-1-yl)-propoxy]-quinazolin-4-yl}-piperidine-1-carboxylic acid (6-morpholin-4-yl-pyridin-3-yl)-amide]
7900 | 282 | CC(C)Oc1ccc(NC(=O)N2CCC(c3ncnc4ccc(OCCCN5CCN(C)CC5)cc34)CC2)cc1 [Compound 76, 4-{6-[3-(4-Methyl-piperazin-1-yl)-propoxy]-quinazolin-4-yl}-piperidine-1-carboxylic acid (4-isopropoxy-phenyl)-amide]
9100 | 160 | CN1CCN(CCCOc2ccc3c(C4CCN(C(=O)Nc5ccc(N6CCOCC6)nc5)CC4)ncnc3c2)CC1 [Compound 80, 4-{7-[3-(4-Methyl-piperazin-1-yl)-propoxy]-quinazolin-4-yl}-piperidine-1-carboxylic acid (6-morpholin-4-yl-pyridin-3-yl)-amide]
8500 | 25 | O=C1CCCN1CCOc1ccc2c(C3CCN(C(=O)Nc4ccc(N5CCOCC5)nc4)CC3)ncnc2c1 [Compound 83, 4-{7-[2-(2-Oxo-pyrrolidin-1-yl)-ethoxy]-quinazolin-4-yl}-piperidine-1-carboxylic acid (6-morpholin-4-yl-pyridin-3-yl)-amide]
400 | 11 | CS(=O)(=O)NCCCOc1ccc2c(C3CCN(C(=O)Nc4ccc(OC5CCCC5)nc4)CC3)ncnc2c1 [Compound 88, 4-[7-(3-Methanesulfonylamino-propoxy)-quinazolin-4-yl]-piperidine-1-carboxylic acid (6-cyclopentyloxy-pyridin-3-yl)-amide]
2700 | 13 | O=C1CCCN1CCCOc1ccc2c(C3CCN(C(=O)Nc4ccc(N5CCCC5)nc4)CC3)ncnc2c1 [Compound 89, 4-{7-[3-(2-Oxo-pyrrolidin-1-yl)-propoxy]-quinazolin-4-yl}-piperidine-1-carboxylic acid (6-pyrrolidin-1-yl-pyridin-3-yl)-amide]
7050 | – | CN1CCN(CCOc2ccc3c(C4CCN(C(=O)Nc5ccc(N6CCCC6)cc5)CC4)ncnc3c2)CC1 [Compound 157, 4-{7-[2-(4-Methyl-piperazin-1-yl)-ethoxy]-quinazolin-4-yl}-piperidine-1-carboxylic acid (4-pyrrolidin-1-yl-phenyl)-amide]
5000 | – | CN1CCN(CCCOc2ccc3c(C4CCN(C(=O)Nc5ccc(N6CCCC6)cc5)CC4)ncnc3c2)CC1 [Compound 158, 4-{7-[3-(4-Methyl-piperazin-1-yl)-propoxy]-quinazolin-4-yl}-piperidine-1-carboxylic acid (4-pyrrolidin-1-yl-phenyl)-amide]
7860 | – | CN1CCN(c2ccc3c(C4CCN(C(=O)Nc5ccc(N6CCCC6)cc5)CC4)ncnc3c2)CC1 [Compound 159, 4-[7-(4-Methyl-piperazin-1-yl)-quinazolin-4-yl]-piperidine-1-carboxylic acid (4-pyrrolidin-1-yl-phenyl)-amide]
6450 | – | CN1CCN(c2ccc3c(C4CCN(C(=O)Nc5ccc(N6CCCC6)nc5)CC4)ncnc3c2)CC1 [Compound 160, 4-[7-(4-Methyl-piperazin-1-yl)-quinazolin-4-yl]-piperidine-1-carboxylic acid (6-pyrrolidin-1-yl-pyridin-3-yl)-amide]
6480 | – | O=C(Nc1ccc(N2CCCC2)cc1)N1CCC(c2ncnc3cc(OCCCN4CCC[C@H]4CO)ccc23)CC1 [Compound 161, (S)-4-{7-[3-(2-Hydroxymethyl-pyrrolidin-1-yl)-propoxy]-quinazolin-4-yl}-piperidine-1-carboxylic acid (4-pyrrolidin-1-yl-phenyl)-amide]
> 21000 | – | CC(=O)N1CCC[C@H]1COc1ccc2c(C3CCN(C(=O)Nc4ccc(N5CCCC5)cc4)CC3)ncnc2c1 [Compound 162, (S)-4-[7-(1-Acetyl-pyrrolidin-2-ylmethoxy)-quinazolin-4-yl]-piperidine-1-carboxylic acid (4-pyrrolidin-1-yl-phenyl)-amide]
4120 | – | CC(=O)N1CCC(COc2ccc3c(C4CCN(C(=O)Nc5ccc(N6CCCC6)cc5)CC4)ncnc3c2)CC1 [Compound 163, 4-[7-(1-Acetyl-piperidin-4-ylmethoxy)-quinazolin-4-yl]-piperidine-1-carboxylic acid (4-pyrrolidin-1-yl-phenyl)-amide]

Structure (SMILES) | IC50 [1] [nM] | IC50 [2] [nM]
COc1cc2ncnc(C3CCN(C(=O)Nc4ccc(OC5CCC5)nc4)CC3)c2cc1OC [Compound 17, 4-(6,7-Dimethoxy-quinazolin-4-yl)-piperidine-1-carboxylic acid (6-cyclobutoxy-pyridin-3-yl)-amide] | 500 | 77.5
